Like-named read-outs stand apart in the source and are kept apart here.
Assays:
[1] = test system: mice fed on a high-fat diet; parameters: method as in PMID 17383874; conditions: cited from earlier work
[2] = biological target: T1, ACLY (Homo sapiens, UniProt P53396); conditions: cited from earlier work
T1 construct: His; made in house; host or cells: Escherichia coli BL21(DE3)
T1 sequence (P53396 1-1101): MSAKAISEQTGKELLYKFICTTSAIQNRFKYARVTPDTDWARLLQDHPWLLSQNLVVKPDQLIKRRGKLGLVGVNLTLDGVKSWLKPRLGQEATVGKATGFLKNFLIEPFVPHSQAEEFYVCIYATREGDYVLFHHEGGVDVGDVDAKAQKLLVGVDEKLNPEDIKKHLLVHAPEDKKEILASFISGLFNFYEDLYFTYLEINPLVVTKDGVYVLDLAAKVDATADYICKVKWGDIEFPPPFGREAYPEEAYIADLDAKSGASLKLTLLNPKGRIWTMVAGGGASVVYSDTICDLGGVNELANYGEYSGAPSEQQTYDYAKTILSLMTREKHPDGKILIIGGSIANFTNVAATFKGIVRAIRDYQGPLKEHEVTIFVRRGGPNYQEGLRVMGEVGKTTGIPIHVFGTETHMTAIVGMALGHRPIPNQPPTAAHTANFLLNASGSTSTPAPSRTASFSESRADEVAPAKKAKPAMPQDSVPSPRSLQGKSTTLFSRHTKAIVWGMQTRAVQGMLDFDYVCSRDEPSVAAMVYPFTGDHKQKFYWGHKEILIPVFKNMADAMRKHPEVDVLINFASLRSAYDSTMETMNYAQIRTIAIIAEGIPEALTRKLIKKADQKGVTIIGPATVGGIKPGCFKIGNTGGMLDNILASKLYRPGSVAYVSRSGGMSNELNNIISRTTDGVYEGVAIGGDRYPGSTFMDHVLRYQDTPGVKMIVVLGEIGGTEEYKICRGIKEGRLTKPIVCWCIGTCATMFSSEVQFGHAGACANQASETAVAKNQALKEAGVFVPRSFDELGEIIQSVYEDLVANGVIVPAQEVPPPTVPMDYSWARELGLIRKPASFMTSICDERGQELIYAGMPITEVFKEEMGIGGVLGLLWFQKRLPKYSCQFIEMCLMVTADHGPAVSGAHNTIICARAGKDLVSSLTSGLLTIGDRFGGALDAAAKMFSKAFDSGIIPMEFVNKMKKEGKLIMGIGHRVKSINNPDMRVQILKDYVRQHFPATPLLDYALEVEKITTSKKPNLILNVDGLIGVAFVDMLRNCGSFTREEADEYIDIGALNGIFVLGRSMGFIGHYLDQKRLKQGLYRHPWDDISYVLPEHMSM

[3] = test system: human ACLY; parameters: method as in PMID 30944472; conditions: cited from earlier work
[4] = biological target: T1, ACLY; experiment: ACLY enzymatic inhibition assay (ADP-Glo Kinase Assay); format: biochemical; conditions: for IC50: concentration-response curves; for inhibition rate: preliminary screening, concentration of 10 µm;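 as to all read-outs here: purified recombinant His-tagged human ACLY, compounds preincubated with enzyme 15 min, then ADP formed measured as luciferase luminescence after ADP-Glo reagent depletes leftover ATP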
[5] = Cell-free aggregation assay (DMR, Epic BT system); format: physicochemical; conditions: for critical aggregation concentration (CAC): reaction buffer, DMR responses at a fixed time
Method: The aggregation assay was performed using an Epic BT system (Corning, NY, USA). Reaction buffer (30 μL) was aliquoted in an Epic 384-well microplate (Corning, NY, USA) and equilibrated for 1 h. Then 10 μL compound solution was added and the microplate was placed on the Epic reader. Dynamic mass redistribution (DMR) signals were recorded for 1 h.

[6] = biological target: T1, ACLY; experiment: Thermal shift assay (Sypro Orange); format: binding; conditions: DMSO control 54.5 °C
Method: The thermal shift assay was conducted in a real-time PCR machine (Bio-Rad, Hercules, CA, USA). Sypro Orange fluorescent dye was used to monitor protein folding/unfolding. Purified ACLY and compound solutions were preincubated in low-profile PCR tubes for 15 min at room temperature, and then Sypro Orange was added and incubated for another 15 min on ice. The total volume was 20 μL. The final concentration of ACLY was 1.45 μM and Sypro Orange was 12.5×. The PCR tubes were heated from 25 to 90 °C at a heating rate of 0.5 °C/10 s. The fluorescence intensity changes in each well were recorded. Tm (transition midpoint) was read from the melting curve.

[7] = biological target: T1, ACLY; experiment: Western blotting analysis of ACLY thermal stability; format: binding
Method: Purified ACLY was preincubated with compounds or DMSO in tubes at room temperature for 15 min. The final concentration of ACLY was 0.58 μM. Then the solution was aliquoted into 200 μL PCR tubes and heated at the indicated temperature for 3 min. […] The SDS–PAGE samples were prepared in 1× loading buffer. A separation gel (8%) and stacking gel (5%) were used to separate and transfer target proteins onto PVDF membranes (0.45 μm). The membranes were blocked at room temperature for 1 h with a blocking solution (Beyotime, Shanghai, China), followed by addition of a primary antibody at room temperature for another 2 h. HRP-linked IgG was used as the secondary antibody and incubated at room temperature for 1 h. Protein bands were imaged by molecular imager ChemiDoc XRS+ (Bio-rad, Hercules, CA, USA).

[8] = biological target: T1, ACLY; experiment: Enzymatic kinetic studies (Michaelis-Menten, Lineweaver-Burk); format: biochemical
Method: The inhibition profile of herbacetin against ACLY was determined by the Michaelis–Menten equation and Lineweaver–Burk curve. Reaction rates were recorded separately at different concentrations of substrates with various inhibitor concentrations. […] For competitive inhibition, Vmax is constant, Km decreases; for noncompetitive inhibition, Km is constant, Vmax decreases; for uncompetitive inhibition, both Vmax and Km decrease, while Km/Vmax is constant. Ki values could be calculated according to the following equations. [table]

[9] = natural ACLY inhibitors, discussion, no reference given

## COc1ccc(-c2ccccc2)cc1NS(=O)(=O)c1cc(Cl)cc(Cl)c1O [BMS–303141]
[1]
  plasma cholesterol, triglyceride and glucose levels: lowered plasma cholesterol, triglyceride and glucose levels

## O=C(O)CC(O)(C(=O)O)C(O)C(=O)O (centres unmarked) [Hydroxycitric acid]
[2]
  Ki: 3000 nM
[2]; [9]
  Ki: 300000 nM

## COC(=O)c1cc(Cl)c(O)c(S(=O)(=O)Nc2cc(-c3ccccc3)c(F)cc2F)c1 [NDI–091143]
[3]
  potency: nanomolar potency

## O=C(O)[C@H]1O[C@@H](Oc2cc(O)c3c(=O)cc(-c4ccc(O)c(O)c4)oc3c2)[C@H](O)[C@@H](O)[C@@H]1O [compound 5, Luteolin 7-O-glucuronide]
[4]
  IC50: 1470 ± 200 nM

## O=c1c(O[C@@H]2O[C@H](CO)[C@H](O)[C@H](O)[C@H]2O)c(-c2ccc(O)c(O)c2)oc2cc(O)cc(O)c12 [compound 6, Hyperoside]
[4]
  IC50: 1530 ± 80 nM

## O=c1cc(-c2ccc(O)c(O)c2)oc2cc(O)c([C@@H]3O[C@H](CO)[C@@H](O)[C@H](O)[C@H]3O)c(O)c12 [compound 14, Isoorientin]
[4]
  IC50: 1860 ± 290 nM

## C[C@@H]1O[C@@H](O[C@H]2[C@H](Oc3cc(O)c4c(=O)cc(-c5ccc(O)c(O)c5)oc4c3)O[C@H](CO)[C@@H](O)[C@@H]2O)[C@H](O)[C@H](O)[C@H]1O [compound 15, Lonicerin]
[4]
  IC50: 1430 ± 440 nM

## O=c1c(O)c(-c2ccc(O)cc2)oc2c(O)c(O)cc(O)c12 [compound 18, Herbacetin]
[4]
  IC50: 500 ± 80 nM
  inhibition rate: 96.07%
[4]; ratio of IC50 values
  fold more active compared with kaempferol: 20 fold
[5]; up to 100 μM
  DMR responses (aggregation state): negligible DMR responses
[6]; 40 μM herbacetin
  Tm of ACLY: 55.5 °C
[6]; 200 μM herbacetin
  Tm of ACLY: 56.5 °C
[7]; 200 μM, significant at 52, 57, 60 and 62 °C
  stability of ACLY at a temperature gradient vs control: more stable
[7]; 57 °C, different concentrations
  isothermal dose-response of ACLY stability: concentration–dependent effect
[8]; ATP as substrate
  Ki: 290 nM
[8]; CoA as substrate
  Ki: 190 nM
[8]; citric acid (CA) as substrate
  Ki: 110 nM
[8]; towards CA, ATP and CoA
  inhibition pattern: noncompetitive inhibitor

## O=C1c2c(O)cc(O)cc2OC(c2ccc(O)c(O)c2)C1O (centres unmarked) [compound 19, Taxifolin]
[4]
  IC50: 2540 ± 250 nM

## O=c1c(O[C@@H]2O[C@H](CO)[C@@H](O)[C@H](O)[C@H]2O)c(-c2ccc(O)c(O)c2)oc2cc(O)cc(O)c12 [compound 20, Isoquercetin]
[4]
  IC50: 2140 ± 120 nM

## O=c1cc(-c2ccc(O)cc2)oc2cc(O)cc(O)c12 [compound 21, Apigenin]
[4]
  IC50: 19100 ± 11600 nM

## O=c1c(O)c(-c2ccc(O)c(O)c2)oc2cc(O)cc(O)c12 [compound 29, Quercetin]
[4]
  IC50: 860 ± 50 nM
  inhibition rate: 91.09%
[4]; ratio of IC50 values
  fold more active compared with kaempferol: 10 fold
[5]
  critical aggregation concentration (CAC): 6.47 µM

## O=c1c(O)c(-c2ccc(O)cc2)oc2cc(O)cc(O)c12 [compound 30, Kaempferol]
[4]
  IC50: 10200 ± 1070 nM

## COc1cc(-c2oc3cc(O)cc(O)c3c(=O)c2O)ccc1O [compound 44, Isorhamnetin]
[4]
  IC50: 49700 ± 14800 nM

## O=c1cc(-c2ccc(O)c(O)c2)oc2cc(O)cc(O)c12 [compound 51, Luteolin]
[4]
  IC50: 640 ± 130 nM
  inhibition rate: 88.28%
[4]; ratio of IC50 values
  activity fold higher than that of apigenin: 30 fold

## O=c1cc(-c2ccc(O)cc2)oc2cc(O)c(O)c(O)c12 [compound 52, Scutellarein]
[4]
  IC50: 710 ± 60 nM
  inhibition rate: 91.80%

## O=C(O)[C@H]1O[C@@H](Oc2cc3oc(-c4ccc(O)cc4)cc(=O)c3c(O)c2O)[C@H](O)[C@@H](O)[C@@H]1O [compound 53, Scutellarin]
[4]
  IC50: 3770 ± 260 nM

## Oc1cc(O)c2c(c1)OC(c1ccc(O)c(O)c1)C(O)C2 (centres unmarked) [compound 73, Catechin]
[4]
  IC50: 23600 ± 19200 nM

## Oc1cc(O)c2cc(O)c(-c3ccc(O)c(O)c3)[o+]c2c1 [compound 74, Cyanidin]
[4]
  IC50: 1290 ± 140 nM

## Oc1cc(O)c2c(c1)O[C@H](c1ccc(O)c(O)c1)[C@H](O)C2 [compound 75, Epicatechin]
[4]
  IC50: 31600 ± 9450 nM

## O=c1c(O)c(-c2ccc(O)cc2O)oc2cc(O)cc(O)c12 [compound 87, Morin]
[4]
  IC50: 4070 ± 690 nM

## O=c1c(O)c(-c2cc(O)c(O)c(O)c2)oc2cc(O)cc(O)c12 [compound 89, Myricetin]
[4]
  IC50: 570 ± 30 nM
[5]
  critical aggregation concentration (CAC): 1.82 µM

## O=c1c(O)c(-c2ccc(O)c(O)c2)oc2c(O)c(O)cc(O)c12 [compound 93, Gossypetin]
[4]
  IC50: 310 ± 20 nM

## C[C@@H]1O[C@@H](Oc2cc(O)c3c(=O)c(O)c(-c4ccc(O)c(O)c4)oc3c2)[C@H](O)[C@H](O)[C@H]1O [compound 106, 7-(α-L-Rhamnopyranosyloxy)-2-(3,4-dihydroxyphenyl)-3,5-dihydroxy-4H-1-benzopyran-4-one]
[4]
  IC50: 570 ± 90 nM

## O=C(/C=C/c1ccc(O)c(O)c1)O[C@@H]1C[C@](O)(C(=O)O)C[C@@H](OC(=O)/C=C/c2ccc(O)c(O)c2)[C@H]1O [isochlorogenic acid A]
[2]; [9]
  IC50: 100 nM

## C[C@@H]1C[C@H]2O[C@@H]2/C=C\C=C\C(=O)Cc2c(Cl)c(O)cc(O)c2C(=O)O1 [radicicol]
[2]; [9]
  Ki: 10000 nM

## anthrone
[2]; [9]
  IC50: 280 nM

## antimycin
[2]; [9]
  Ki: 4000 nM
